The source of these data is patent US10899747B2, “Biaryl piperidine amide compounds and methods of use thereof” (Athenex, Inc., priority 2017, dated 2021).

A value given as a limit tells only on which side of the number the result lay.

The IC50 is the concentration that gives 50% inhibition. High values mean weaker potency, low ones greater potency.

This assay deals with IL-2. In words: PHA-IL2 (cell activation and cytokine analysis). The format is cell-based. To be noted: 50% inhibition concentration class. Here is the method:
Cells to be tested may include, but are not limited to, a) Jurkat (a transformed human T cell leukemia), b) whole blood isolated from human or rodent sources, c) peripheral blood mononuclear cells (PBMC) freshly isolated from human or rodent whole blood, or d) purified fractions of PBMC (e.g., CD4 T cells). Cells are plated in 96-well plates at a final density of 1.0-2.0×10^6 cells/ml in 150 ul of assay medium (RPMI+0.5% fetal calf serum). Test compounds are included at a final concentration of ≤20 uM and generally pre-incubated with cells for 30 minutes prior to stimulation. An appropriate stimulus is added, including but not limited to, a) phytohemagglutinin (PHA), b) phorbol myristate acetate (PMA) and ionomycin, or c) stimulatory antibodies to the T cell receptor (TCR) complex (e.g., anti-CD3ε) and CD28. Cell cultures are stimulated for 24-48 hours in a humidified incubator (37 degrees C./5% CO2). A fraction of the culture supernatant is than harvested from each well and assayed for the presence of appropriate cytokine using standard ELISA. Cytokines to be analyzed may include IL-2, IL-4, IL-10, IL-17, IL-22, IFNγ, and/or TNFα. If required, the number of cytokine producing cells can be determined using intracellular staining and flow cytometry. […]
Take `Cn1ncc2cc(-c3ncccc3OCC(=O)N3CCC(CCc4ccc5c(c4)OCO5)CC3)ccc21` [Compound 375]: the IC50 was in the range of 1000 to 10000 nM.

The compound `N#Cc1ccc(-c2cc(C#N)ccc2OCC(=O)N2CCC(C#Cc3cnccn3)CC2)cc1` [Compound 429] had a half-inhibitory concentration (IC50) of 1000 to 10000 nM.

As for `O=C(COc1ccccc1-c1cccc(Cl)c1)N1CCC(CCc2ccc3c(c2)OCO3)CC1` [Compound 201], the half-inhibitory concentration (IC50) is < 1000 nM.

The compound `O=C(c1ccccc1)c1ccc(-c2ccccc2OCC(=O)N2CCC(CCc3cc(Br)c(O)c(Br)c3)CC2)cc1` [Compound 332] had an IC50 of 1000 to 10000 nM.

In the case of `CCOc1ccc(CCC2CCN(C(=O)COc3ccccc3-c3ccc(F)cc3O)CC2)cc1` [Compound 309], the IC50 is < 1000 nM.

In turn, `O=C(COc1ccccc1-c1ccccc1)N1CCC(CCc2cc3c(cc2CO)OCO3)CC1` [Compound 285] came in with an IC50 of 1000 to 10000 nM.

`CN(C)c1ccc(-c2ccccc2OCC(=O)N2CCC(CCc3ccc4c(c3)OCO4)CC2)cc1` [Compound 213] registered an IC50 of 10000 to 50000 nM.

As to `N#Cc1ccc(-c2cc(C(=O)O)ccc2OCC(=O)N2CCC(CCc3ccccc3)CC2)cc1` [Compound 315], the IC50 is 1000 to 10000 nM.

As to `CCCC(Oc1ccccc1-c1ccccc1)C(=O)N1CCC(CCc2ccc3c(c2)OCCCO3)CC1` (stereo not drawn) [Compound 210], the IC50 is < 1000 nM.

Turning to `N#Cc1ccc(OCC(=O)N2CCC(CCc3ccc(OCCN4CCOCC4)cc3)CC2)c(-c2ccc(F)cc2O)c1` [Compound 357], the IC50 was < 1000 nM.

For the compound `CC(C)NS(=O)(=O)c1ccc(OCC(=O)N2CCC(CCc3ccc4c(c3)OCO4)CC2)c(-c2ccc(F)cc2O)c1` [Compound 390], the IC50 is 1000 to 10000 nM.

Compound `COc1ccc(CCC2(O)CCN(C(=O)COc3ccccc3-c3ccccc3)CC2)cc1` [Compound 175] showed an IC50 of 10000 to 50000 nM.

The compound `O=C(COc1ccccc1-c1ccc2cc[nH]c2c1)N1CCC(CCc2ccc3c(c2)OCCCO3)CC1` [Compound 343] gave an IC50 of 10000 to 50000 nM.

Compound `CCOC(=O)c1cccc(-c2ccccc2OCC(=O)N2CCC(CCc3ccc4c(c3)OCO4)CC2)c1` [Compound 159] showed an IC50 of 1000 to 10000 nM.

Take `N#Cc1ccc(-c2ccccc2CCC(=O)N2CCC(CCc3cc(F)cc(F)c3)CC2)cc1` [Compound 226]: the IC50 was 1000 to 10000 nM.

Regarding `N#Cc1ccc(OCC(=O)N2CCC(CCc3ccc4c(c3)OCCO4)CC2)c(-c2ccc(F)cc2O)c1` [Compound 347], the concentration for half-maximal inhibition (IC50) was < 1000 nM.

Turning to `CC(C)Oc1cccc(CCC2CCN(C(=O)COc3ccccc3-c3cc(C#N)ccc3O)CC2)c1` [Compound 441], the IC50 was < 1000 nM.

With `O=C(COc1ccccc1-c1ccccc1O)N1CCC(CCc2ccc3c(c2)OCCCO3)CC1` [Compound 233], the IC50 was < 1000 nM.

In the case of `O=C(COc1ccccc1-c1ccc(-c2ccccc2)cc1)N1CCC(CCc2ccc3c(c2)OCO3)CC1` [Compound 218], the IC50 was in the range of 1000 to 10000 nM.

On to `CCCOc1ccc(CCC2CCN(C(=O)COc3ccccc3-c3ccc(C#N)cc3)CC2)cc1OCCC` [Compound 300], for which the IC50 was < 1000 nM.

`CCc1ccc(OCC(=O)N2CCC(CCc3ccc4c(c3)OCO4)CC2)c(-c2ccc(Cl)nc2)c1` [Compound 275] registered an IC50 of 1000 to 10000 nM.

The compound `Cc1cc(F)ccc1-c1ccccc1OCC(=O)N1CCC(CCc2ccc3c(c2)OCO3)CC1` [Compound 262] yielded an IC50 of 1000 to 10000 nM.

As for `O=C(COc1ccccc1-c1ccc2[nH]ncc2c1)N1CCC(CCc2ccc3c(c2)OCO3)CC1` [Compound 249], the IC50 was < 1000 nM.

Regarding `CC1Oc2ccc(CCC3CCN(C(=O)COc4ccccc4-c4ccccc4)CC3)cc2OC1C` (stereo not drawn) [Compound 256], the IC50 was < 1000 nM.

Regarding `O=C(COc1ccccc1-c1ccc(F)cc1O)N1CCC(CCc2ccc(F)c(C(F)(F)F)c2)CC1` [Compound 307], the IC50 is 1000 to 10000 nM.

The compound `O=C(COc1ccccc1-c1ccccc1OC(F)(F)F)N1CCC(CCc2ccc3c(c2)OCO3)CC1` [Compound 184] gave an IC50 of 10000 to 50000 nM.

For `N#Cc1ccc(OCC(=O)N2CCC(CCc3ccccc3)CC2)c(-c2ccc(F)cc2O)c1` [Compound 345], the concentration for half-maximal inhibition (IC50) was < 1000 nM.
